Assay results reported in publication PMC8395111 (International Journal of Molecular Sciences, 2021).
Read-outs that look alike come from different tables or passages of the source. Square brackets hold non-standard residues; d marks the D form. Peptide text beside a SMILES is read from it.

Assays:
[1] = cited from earlier work
Excerpt: The blood-brain barrier (BBB) is formed by a tightly sealed monolayer of endothelial cells, and the tight junctions between the endothelial cells are responsible for the barrier function of the BBB. Various drugs are discovered to treat central nervous system (CNS) disorders but fail to enter the market because of their inability to cross the BBB [19]. Vemurafenib, an antitumoral agent that is capable to pass the BBB, was approved in 2011. It inhibits the BRAF-serine/threonine-kinase and leads to a median survival of 13.6 months compared to 9.7 months upon treatment with dacarbazine [ ...

[2] = Ex vitro stability study in fetal bovine serum, SDS-PAGE; format: in vitro ADME; conditions: 50 µg peptide in 200 µL, 37 °C, Coomassie, at least two measurements
Protocol: (§1) Peptide stability was tested in the presence of fetal bovine serum (FBS, Gibco®) and human serum (HS, Sigma-Aldrich, Deisenhofen, Germany). Therefore 50 µg of the peptide was mixed with 0 µL (0%), 4 µL (2%) and 20 µL (10%) pure FBS or HS and refilled with PBS buffer to a total volume of 200 µL and incubated for 1 day, 6 days and 7 days at 37 °C. Sample aliquots of 10 µL were taken before incubation (0 h) and after 1 h, 8 h, 24 h, 2 days and 7 days of incubation. The aliquots (10 µL) were immediately mixed with 10 µL 2 × loading sample buffer and stored at −20 °C. The collected samples of the stability studies were analyzed by SDS- polyacrylamide gel electrophoresis (BioRad, Mini-PROTEAN Tetra System). As a standard, the Ultra-low Range Molecular Weight Marker M3546 (Sigma-Aldrich, Deisenhofen, Germany) was used. Before use, the collected samples of the stability studies (10 µL aliquot + 10 µL 2 xLD), as well as the Ultra-Low Molecular Weight marker (ULMW), were brought to room temperature. A concentration series in the range of 0.5 µg, 1 µg and 2.5 µg peptide per 10 µL sample volume was prepared in PBS for each peptide. In total, 10 µL of the resulting samples (0.5 µg, 1 µg and 2.5 µg peptide) were mixed with 10 µL 2 × loading buffer. Afterwards, all samples (collected samples, ULMW, concentration series) were incubated at 95 °C for 10 min.

[3] = Ex vitro stability study in human serum, SDS-PAGE; format: in vitro ADME; conditions: 50 µg peptide in 200 µL, 37 °C, Coomassie
Protocol: as §1

[4] = test system: glioblastoma cell line LN-229; format: cell-based; conditions: LN-229, PI-uptake
Protocol: (§2) To determine peptide-induced cell death, cells were resuspended in respective media (see Section 2.2) and diluted to a concentration of 1 × 10^6 cells/mL. 100 µL Aliquots (10^5 cells) were incubated with different peptide concentrations (5 µM to 100 µM) for up to 8 h in the presence of propidium iodide PI (2 µL/10^5 cells of 50 µg/mL, Molecular Probes Inc., Eugene, OR, USA) at room temperature in black 96-well plates. PI-uptake was measured after 0, 1, 2, 4 and 8 h using the GloMax® Multi+ Detection System (Promega, Madison, WI, USA). Cytotoxicity was calculated from the percentage of PI-positive cells in media alone (P0) and in the presence of peptide (PX) (see Equation (3)). Triton-X-100 was used to determine 100% of PI-positive cells (P100). (3) %PI−uptake=100×(PX−P0)/(P100−P0)
(§3) Excitation and emission wavelengths were 536 nm and 617 nm, respectively. The cytotoxicity of the peptides was further investigated in the presence of different serum types and amounts, as well as in the presence of protease inhibition.

[5] = test system: glioblastoma cell line U-87 mg; format: cell-based; conditions: PI-uptake
Protocol: as §2, §3

[6] = test system: melanoma cell line SBcl-2; format: cell-based; conditions: SBcl-2, PI-uptake
Protocol: as §2, §3

[7] = Propidium iodide-uptake toxicity assay, NHDF; format: cell-based, human; conditions: human, normal human dermal fibroblasts (NHDF), PI-uptake, fibroblast growth medium (2% FBS)
Protocol: as §2, with “([…])” for “(10^5 cells) were incubated with different peptide concentrations (5 µM to 100 µM)”
as §3

[8] = pH 7.4
Protocol: (§4) Spectra of tryptophan fluorescence were measured at room temperature with a Cary Eclipse fluorescence spectrophotometer of Varian (Salt Lake City, UT, USA). The excitation wavelength was set to 280 nm, and the slid-width was 10 nm. The emission was recorded between 300 nm and 410 nm.
(§5) Quenching of Tryptophan was carried out in the presence and absence of phospholipid liposomes (lipid-to-peptide ratio 25:1) using 0.1, 0.4 and 0.7 M acrylamide. The data were analyzed according to the Stern–Volmer equation (Equation (2)):(2) F0/F=1+KSV×[Q] where F0 and F represent the fluorescence emission intensities in the absence and presence of the quencher molecule (Q), and KSV is the Stern–Volmer quenching constant, which is a quantitative measure for the accessibility of tryptophan to acrylamide [80].

[9] = Tryptophan fluorescence and acrylamide quenching in buffer (solubility/aggregation); conditions: for λ em,max / KSV (Stern–Volmer constant): PBS, mean ± SD, three experiments; for λ em,max: Trp fluorescence, excitation 280 nm, room temperature; for KSV (Stern–Volmer constant): acrylamide 0.1, 0.4, 0.7 M
Protocol: as §4, §5

melanoma cell line A375 = format: cell-based; conditions: A375, PI-uptake, 10% FBS
Protocol: as §2, §3
The standard growth medium used for cell line A375 was DMEM containing 10% fetal bovine serum (FBS). Before the study of peptide-induced cytotoxicity, cells were diluted to 10^5 cells/100 µL in DMEM containing 2% FBS. […]

[10] = test system: normal human dermal fibroblasts NHDF; experiment: Propidium iodide-uptake toxicity assay, NHDF; format: cell-based; conditions: 2–20 µM peptide, 8 h
Protocol: as §2, with “([…])” for “(10^5 cells) were incubated with different peptide concentrations (5 µM to 100 µM)”
as §3

[11] = not given; remark: listed apart in the source
[12] = 2% FBS in PBS, up to 7 days (9D-RDP215 main series 2 days, repeat 7 days)
[13] = 2% HS in PBS, 7 days, at least two measurements

Row | SMILES | median survival [1] [months] | peptide degradation [2, 12] | peptide degradation ([2]; 10% FBS in PBS, up to 7 days) | peptide degradation [3, 13] | LC50 after 8 h [4] [µM] | LC50 after 8 h [5] [µM] | LC50 after 8 h [6] [µM] | CC50 at 4 h [7] [µM] | CC50 at 8 h [7] [µM] | λ em,max [9] [nm] | KSV (Stern–Volmer constant) [9] [M⁻¹] | also measured
1 | CCCS(=O)(=O)Nc1ccc(F)c(C(=O)c2c[nH]c3ncc(-c4ccc(Cl)cc4)cc23)c1F [Vemurafenib, vemurafenib] | 13.6 |  |  |  |  |  |  |  |  |  |  | 
2 | CC[C@H](C)[C@H](NC(=O)[C@@H](CCCNC(=N)N)NC(=O)[C@H](Cc1c[nH]c2ccccc12)NC(=O)[C@H](N)Cc1ccccc1)C(=O)N[C@H](CCCNC(=N)N)C(=O)N[C@H](C(=O)N[C@H](CCCNC(=N)N)C(=O)N[C@H](CCCNC(=N)N)C(=O)N1CCC[C@H]1C(=O)N[C@H](CCCNC(=N)N)C(=O)N[C@H](CCCNC(=N)N)C(=O)N[C@H](C(=O)N[C@H](CCCNC(=N)N)C(=O)N[C@H](C(=O)N[C@H](CCCNC(=N)N)C(=O)N[C@@H](Cc1c[nH]c2ccccc12)C(=O)N[C@H](Cc1ccccc1)C(N)=O)[C@@H](C)CC)[C@@H](C)CC)[C@@H](C)CC [9D-RDP215, 9D-R-DIM-P-LF11-215] (H-[dF]W[dR]I[dR]I[dR][dR]P[dR][dR]I[dR]I[dR]W[dF]-NH2) |  | no degradation | no degradation | does not show any peptide degradation | 1.4 ± 5.1 | 1.6 ± 0.1 | 1.8 ± 0.1 | 58.8 ± 4.2 | 18.9 ± 1 | 354 ± 0.5 | 27.0 ± 2.8 | peptide degradation ([3]; 10% HS in PBS, up to 7 days, at least two measurements): does not show any peptide degradation; solubility / aggregation in buffer [8]: completely dissolved and not aggregated
3 | CC[C@H](C)[C@H](NC(=O)[C@H](CCCNC(=N)N)NC(=O)[C@@H](NC(=O)[C@H](CCCNC(=N)N)NC(=O)[C@H](CCCNC(=N)N)NC(=O)[C@@H]1CCCN1C(=O)[C@H](CCCNC(=N)N)NC(=O)[C@H](CCCNC(=N)N)NC(=O)[C@@H](NC(=O)[C@H](CCCNC(=N)N)NC(=O)[C@@H](NC(=O)[C@H](CCCNC(=N)N)NC(=O)[C@H](Cc1c[nH]c2ccccc12)NC(=O)[C@@H](N)Cc1ccccc1)[C@@H](C)CC)[C@@H](C)CC)[C@@H](C)CC)C(=O)N[C@@H](CCCNC(=N)N)C(=O)N[C@@H](Cc1c[nH]c2ccccc12)C(=O)N[C@@H](Cc1ccccc1)C(N)=O [RDP215, R-DIM-P-LF11-215] (H-FWRIRIRRPRRIRIRWF-NH2) |  | No degradation | No degradation | completely degraded | 1.7 ± 0.1 | 3.0 ± 0.1 | 4.7 ± 0.4 | 99.1 ± 0.1 | 68.2 ± 1.8 | 356 ± 0 | 24.7 ± 5.4 | λem,max with DPPS: 336 nm; peptide degradation ([3]; 2% HS in PBS, 1 h to 2 days): ongoing peptide degradation; peptide degradation ([3]; 10% HS in PBS, 24 h, at least two measurements): completely degraded; LC50 after 4 h (melanoma cell line A375; 4 h): 17.1 ± 1.5 µM; LC50 after 8 h (melanoma cell line A375; 8 h): 3.8 ± 0.3 µM; harm on NHDF cells (PI-uptake) [10]: no harm; decrease of KSV vs buffer [11]: 20.7 M⁻¹; solubility / aggregation in buffer ([9]; PBS pH 7.4, concluded from Trp emission maximum and KSV): completely dissolved and not aggregated
4 | CN(C)/N=N/c1[nH]cnc1C(N)=O [dacarbazine] | 9.7 |  |  |  |  |  |  |  |  |  |  | 
